Reference: US20250114299A1, “COMBINATION THERAPY INTRAVAGINAL RINGS” (The population Council, Inc., priority 2022, published 2025)
Read-outs that look alike come from different tables or passages of the source.

What was measured:
[1] = tested on: wild-type HIV-1 strains and HIV-1 strains harboring different resistance-inducing mutations; conditions: Das et al., J. Med Chem., 2004; cited from earlier work
[2] = pKa of DPV (chemical properties); assay type: physicochemical
[3] = Solubility of DPV (Form I) in various solvents; assay type: physicochemical

Compound: Cc1cc(C)c(Nc2ccnc(Nc3ccc(C#N)cc3)n2)c(C)c1 [DPV, 4-[[4-[(2,4,6-trimethylphenyl)amino]-2-pyrimidinyl]amino]benzonitrile]
- activity against wild-type and resistant HIV-1 strains [1]: potent activity
- pKa [2]: 5.8
- Solubility ([3]; Form I, 0.01M HCl): 0.17 mg/g
- Solubility ([3]; Form I, 0.1M HCl): 0.02 mg/g
- Solubility ([3]; Form I, 0.1M NaOH): 0.001 mg/g
- Solubility ([3]; Form I, Buffer pH 2): 0.095 mg/g
- Solubility ([3]; Form I, Buffer pH 4): 0.0025 mg/g
- Solubility ([3]; Form I, Buffer pH 6): 0.001 mg/g
- Solubility ([3]; Form I, Buffer pH 8): 0.001 mg/g
- Solubility ([3]; Form I, Buffer pH 10): 0.001 mg/g
- Solubility ([3]; Form I, Polyethylene glycol 400): 47.4 mg/g
- Solubility ([3]; Form I, Propylene glycol): 2.69 mg/g
- Solubility ([3]; Form I, Water): 0.001 mg/g
- solubility in water ([3]; water): virtually insoluble in water
- Solubility ([3]; water, read-out: solubility of dapivirine in water): < 1 µg/mL
